Biological target: PNKP (polynucleotide kinase 3'-phosphatase); purified recombinant PNKP (Homo sapiens, UniProt Q96T60)
Test: intrinsic tryptophan fluorescence quenching titration
Format: binding

Work on `O=P(O)(O)OC[C@H]1O[C@@](CO)(OP(=O)(O)O)[C@@H](O)[C@@H]1O` [F2,6BP] yielded a Kd of 525 ± 25 nM.
